In US6358961B1, “Farnesyltransferase inhibiting quinazolinones” (Jannsen-Cilag S.A., priority 1997, dated 2002):

Assays:
[1] = tested on: NIH 3T3 cells transformed by the T24 activated human H-ras gene; experiment: Ras-Transformed Cell Phenotype Reversion Assay; type: cell-based, mouse; settings: NIH3T3; cell counts after 72 hours proliferation; test concentrations 5, 10, 50, 100 and 500 nM
Excerpt: “Ras-Transformed Cell Phenotype Reversion Assay”
Insertion of activated oncogenes such as the mutant ras gene into mouse NIH 3T3 cells converts the cells to a transformed phenotype, The cells become tumorigenic, display anchorage independent growth in semi-solid medium and lose contact inhibition. Loss of contact inhibition produces cell cultures which no longer form uniform monolayers. Rather, the cells pile up into multicellular nodules and grow to very high saturation densities in plastic tissue culture dishes. Agents such as protein famesyl transferase inhibitors which revert the ras transformed phenotype restore the uniform monolayer growth pattern to cells in culture. This reversion is easily monitored by counting the number of cells in tissue culture plates. Transformed cells will achieve higher cell numbers than cells which have reverted to an untransformed phenotype. Compounds which revert the transformed phenotype should produce antitumor effects in tumors bearing ras gene mutations.
Compounds are screened in tissue culture in NIH 3T3 cells transformed by the T24 activated human H-ras gene. […] Then the cells are detached in 1.0 ml trypsin-EDTA cell dissociation medium and counted on a Coulter particle counter.
Cell numbers expressed as cells per well are measured using a Coulter Particle Counter. […]

melting point [°C] | SMILES | IC50 [1] [nM]
255.1 | O=c1nc(-c2cccc(Cl)c2)c2cc(C(c3ccc(Cl)cc3)n3ccnc3)ccc2[nH]1 (racemic) [Compound 1, (±)-4-(3-chlorophenyl)-6[(4-chlorophenyl)-1H-imidazol-1-ylmethyl]-2(1H)-quinazolinone] | –
61.4 | O=c1nc(-c2cccc(Cl)c2)c2cc(C(c3ccc(Cl)cc3)n3ccnc3)ccc2n1Cc1ccncc1 (racemic) [Compound 3, (±)-4-(3-chlorophenyl)-6-[(4-chlorophenyl)-1H-imidazol-1-ylmethyl]-1-(4-pyridinylmethyl)-2(1H)-quinazolinone] | –
177.1 | O=C1Nc2ccc(C(c3ccc(Cl)cc3)n3ccnc3)cc2C(c2cccc(Cl)c2)N1 (racemic) [Compound 8, (±)-4-(3-chlorophenyl)-6-[(4-chlorophenyl)-1H-imidazol-1-ylmethyl]-3,4-dihydro-2(1H)-quinazolinone] | –
– | CN1C(=O)NC(c2cccc(Cl)c2)c2cc(C(c3ccc(Cl)cc3)c3cncn3C)ccc21 (racemic) [Compound 14, (±)-4-(3-chlorophenyl)-6-[(4-chlorophenyl)(1-methyl-1H-imidazol-5-yl)methyl]-3,4-dihydro-1-methyl-2(1H)-quinazolinone] | < 500
